target: SIK2 (Homo sapiens, UniProt Q9H0K1); test: SIK2 Enzymatic Assay Version 1 (ADP Glo); format: biochemical; conditions: enzyme 0.6 nM, 160 μM ATP and 140 μM HDAC5tide (each 2× final concentration); 30 minutes pre-incubation, 4 hours; ADPGlo luminescence; read-out: SIK2 ADP Glo IC50 (μM) (Test Example 1)
Procedure: All steps were performed at room temperature. Compounds were pre-plated onto an assay plate using an Echo acoustic dispenser (Labcyte, E550 or E555) at 20 nL per well. Enzyme prepared in Assay Buffer at 0.6 nM (2× final concentration) was added at 2 μL per well using the Multidrop Combi (Thermo Fisher—used for all additions in this assay) to the assay plate, spun for 1 min at 800-850 rpm (Allegra 6KR Beckman Coulter centrifuge), and incubated with compound for 30 minutes.
One column of wells was dedicated to a no-peptide negative control (containing only ATP). ADPGlo Reagent (prepared and aliquoted as per manufacturer instructions) was then added at 2 μL per well, spun and incubated for 40 min. ADPGlo Detection (prepared and aliquoted as per manufacturer instructions) was added at 2 μL per well to the assay plate, which was spun and incubated for at least 30 min. The plate was then read on the Pherastar (BMG Labtech) using a luminescence read. Gain was set by the 0.1 mM concentration of ADP wells in the ADP/ATP standard curve plate generated as per manufacturer instructions.

Sequence of SIK2 (Q9H0K1 whole entry, species assumed): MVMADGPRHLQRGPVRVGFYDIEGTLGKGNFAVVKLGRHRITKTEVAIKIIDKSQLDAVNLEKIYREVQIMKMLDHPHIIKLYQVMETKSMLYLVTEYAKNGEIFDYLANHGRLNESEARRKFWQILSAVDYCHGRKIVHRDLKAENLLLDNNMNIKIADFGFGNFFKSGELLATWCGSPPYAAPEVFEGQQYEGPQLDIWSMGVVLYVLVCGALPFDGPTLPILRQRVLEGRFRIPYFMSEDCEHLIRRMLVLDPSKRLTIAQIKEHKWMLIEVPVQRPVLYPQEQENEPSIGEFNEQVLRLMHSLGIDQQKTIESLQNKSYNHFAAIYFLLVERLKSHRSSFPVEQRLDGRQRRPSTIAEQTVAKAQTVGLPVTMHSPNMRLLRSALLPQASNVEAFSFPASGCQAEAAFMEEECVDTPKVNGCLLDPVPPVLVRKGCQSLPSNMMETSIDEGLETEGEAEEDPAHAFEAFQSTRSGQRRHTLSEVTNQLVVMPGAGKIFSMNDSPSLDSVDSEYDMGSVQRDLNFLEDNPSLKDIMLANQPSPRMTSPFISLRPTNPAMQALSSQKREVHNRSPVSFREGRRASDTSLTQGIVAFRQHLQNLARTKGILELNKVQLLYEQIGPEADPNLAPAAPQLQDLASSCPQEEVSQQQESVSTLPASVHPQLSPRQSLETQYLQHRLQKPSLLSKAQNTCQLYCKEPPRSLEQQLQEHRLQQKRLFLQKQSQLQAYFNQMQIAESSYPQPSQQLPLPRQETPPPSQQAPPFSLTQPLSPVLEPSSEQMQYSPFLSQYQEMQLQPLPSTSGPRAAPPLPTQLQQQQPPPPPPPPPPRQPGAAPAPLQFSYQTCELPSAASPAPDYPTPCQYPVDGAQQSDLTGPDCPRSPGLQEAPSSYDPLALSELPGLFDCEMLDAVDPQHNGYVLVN

Row | Structure (SMILES) | IC50
1 | CN1C[C@@H](Oc2cnc(C#N)cc2-c2ccn3nc(NC(=O)C4CC4)cc3c2)C[C@@H](C(F)(F)F)C1 [Example 28, N-[5-[2-cyano-5-[[(3S,5R)-1-methyl-5-(trifluoromethyl)-3-piperidyl]oxy]-4-pyridyl]pyrazolo[1,5-a]pyridin-2-yl]cyclopropanecarboxamide] | 0.00922 µM
2 | CC(C)(C)OC(=O)N1CC2(CC(Oc3cnc(C#N)cc3-c3ccn4nc(NC(=O)C5CC5)cc4c3)C2)C1 [Example 34, tert-butyl 2-[[6-cyano-4-[2-(cyclopropanecarbonylamino)pyrazolo[1,5-a]pyridin-5-yl]-3-pyridyl]oxy]-6-azaspiro[3.3]heptane-6-carboxylate] | 0.0227 µM
3 | CC(C)(C)OC(=O)COc1cnc(C#N)cc1-c1ccn2nc(NC(=O)C3CC3)cc2c1 [Example 55, tert-butyl 2-[[6-Cyano-4-[2-(cyclopropanecarbonylamino)pyrazolo[1,5-a]pyridin-5-yl]-3-pyridyl]oxy]acetate] | 0.0096 µM
4 | N#Cc1cc(-c2ccn3nc(NC(=O)C4CC4)cc3c2)c(OCc2ccc(C(F)(F)F)nc2)cn1 [Example 61, N-[5-[2-cyano-5-[[6-(trifluoromethyl)-3-pyridyl]methoxy]-4-pyridyl]pyrazolo[1,5-a]pyridin-2-yl]cyclopropanecarboxamide] | 0.0103 µM
5 | N#Cc1cc(-c2ccn3nc(NC(=O)C4CC4)cc3c2)c(OCc2ccnc(C(F)(F)F)c2)cn1 [Example 62, N-[5-[2-cyano-5-[[2-(trifluoromethyl)-4-pyridyl]methoxy]-4-pyridyl]pyrazolo[1,5-a]pyridin-2-yl]cyclopropanecarboxamide] | > 5 µM
6 | CN1CCC[C@H](Oc2cnc(C#N)cc2-c2ccn3nc(NC(=O)C4CC4)cc3c2)C1 [Example 65, N-[5-[2-cyano-5-[[(3S)-1-methyl-3-piperidyl]oxy]-4-pyridyl]pyrazolo[1,5-a]pyridin-2-yl]cyclopropanecarboxamide] | 0.00871 µM
7 | CN1CC[C@H](CNc2cnc(C#N)cc2-c2ccn3nc(NC(=O)C4CC4)cc3c2)C1 [Example 71, N-[5-[2-cyano-5-[[(3R)-1-methylpyrrolidin-3-yl]methylamino]-4-pyridyl]pyrazolo[1,5-a]pyridin-2-yl]cyclopropanecarboxamide] | 0.0577 µM
8 | CN(C)CC1CN(c2cnc(C#N)cc2-c2ccn3nc(NC(=O)C4CC4)cc3c2)C1 [Example 72, N-[5-[2-cyano-5-[3-(dimethylaminomethyl)azetidin-1-yl]-4-pyridyl]pyrazolo[1,5-a]pyridin-2-yl]cyclopropanecarboxamide] | 0.15 µM
9 | CNC(=O)C1CN(c2cnc(C#N)cc2-c2ccn3nc(NC(=O)C4CC4)cc3c2)C1 [Example 73, 1-[6-cyano-4-[2-(cyclopropanecarbonylamino)pyrazolo[1,5-a]pyridin-5-yl]-3-pyridyl]-N-methyl-azetidine-3-carboxamide] | 0.0846 µM
10 | CC(C)(O)C1CN(c2cnc(C#N)cc2-c2ccn3nc(NC(=O)C4CC4)cc3c2)C1 [Example 74, N-[5-[2-cyano-5-[3-(1-hydroxy-1-methyl-ethyl)azetidin-1-yl]-4-pyridyl]pyrazolo[1,5-a]pyridin-2-yl]cyclopropanecarboxamide] | 0.00654 µM
11 | N#Cc1cc(-c2ccn3nc(NC(=O)C4CC4)cc3c2)c(N2CC(O)(C(F)(F)F)C2)cn1 [Example 75, N-[5-[2-cyano-5-[3-hydroxy-3-(trifluoromethyl)azetidin-1-yl]-4-pyridyl]pyrazolo[1,5-a]pyridin-2-yl]cyclopropanecarboxamide] | 0.398 µM
12 | N#Cc1cc(-c2ccn3nc(NC(=O)C4CC4)cc3c2)c(NCC2CC2)cn1 [Example 76, N-[5-[2-cyano-5-(cyclopropylmethylamino)-4-pyridyl]pyrazolo[1,5-a]pyridin-2-yl]cyclopropanecarboxamide] | 0.0255 µM
13 | Cn1ccc(Nc2cnc(C#N)cc2-c2ccn3nc(NC(=O)C4CC4)cc3c2)n1 [Example 77, N-[5-[2-cyano-5-[(1-methylpyrazol-3-yl)amino]-4-pyridyl]pyrazolo[1,5-a]pyridin-2-yl]cyclopropanecarboxamide] | 0.242 µM
14 | N#Cc1cc(-c2ccn3nc(NC(=O)C4CC4)cc3c2)c(NC2CCCC2)cn1 [Example 78, N-[5-[2-cyano-5-(cyclopentylamino)-4-pyridyl]pyrazolo[1,5-a]pyridin-2-yl]cyclopropanecarboxamide] | 0.0143 µM
15 | Cn1cc(Nc2cnc(C#N)cc2-c2ccn3nc(NC(=O)C4CC4)cc3c2)cn1 [Example 79, N-[5-[2-cyano-5-[(1-methylpyrazol-4-yl)amino]-4-pyridyl]pyrazolo[1,5-a]pyridin-2-yl]cyclopropanecarboxamide] | 0.389 µM
16 | N#Cc1cc(-c2ccn3nc(NC(=O)C4CC4)cc3c2)c(NC2CC2)cn1 [Example 80, N-[5-[2-cyano-5-(cyclopropylamino)-4-pyridyl]pyrazolo[1,5-a]pyridin-2-yl]cyclopropanecarboxamide] | 0.0703 µM

Row | Structure (SMILES) | IC50
17 | N#Cc1cc(-c2ccn3nc(NC(=O)C4CC4)cc3c2)c(O[C@H]2CNCCOC2)cn1 [Example 84, N-[5-[2-cyano-5-[[(6S)-1,4-oxazepan-6-yl]oxy]-4-pyridyl]pyrazolo[1,5-a]pyridin-2-yl]cyclopropanecarboxamide] | 0.014 µM
18 | CN1CC2CN(c3cnc(C#N)cc3-c3ccn4nc(NC(=O)C5CC5)cc4c3)CC2C1 (centres unmarked) [Example 90, N-[5-[2-cyano-5-(2-methyl-1,3,3a,4,6,6a-hexahydropyrrolo[3,4-c]pyrrol-5-yl)-4-pyridyl]pyrazolo[1,5-a]pyridin-2-yl]cyclopropanecarboxamide] | 0.0134 µM
19 | CN1CC2(C1)CN(c1cnc(C#N)cc1-c1ccn3nc(NC(=O)C4CC4)cc3c1)C2 [Example 91, N-[5-[2-cyano-5-(2-methyl-2,6-diazaspiro[3.3]heptan-6-yl)-4-pyridyl]pyrazolo[1,5-a]pyridin-2-yl]cyclopropanecarboxamide] | 0.0688 µM
20 | Cc1cc(-c2ccn3nc(NC(=O)C4CC4)cc3c2)c(O[C@@H]2C[C@H]3CC[C@@H](C2)N3C)cn1 [Example 140, N-(5-(2-methyl-5-(((1R,3r,5S)-8-methyl-8-azabicyclo[3.2.1]octan-3-yl)oxy)pyridin-4-yl)pyrazolo[1,5-a]pyridin-2-yl)cyclopropanecarboxamide] | 0.0195 µM
21 | CCN1CC(Oc2cnc(C)cc2-c2ccn3nc(NC(=O)C4CC4)cc3c2)C1 [Example 141, N-[5-[5-(1-ethylazetidin-3-yl)oxy-2-methyl-4-pyridyl]pyrazolo[1,5-a]pyridin-2-yl]cyclopropanecarboxamide] | 0.0138 µM
22 | Cc1cc(-c2ccn3nc(NC(=O)C4CC4)cc3c2)c(OC2CN(C(C)C)C2)cn1 [Example 142, N-[5-[5-(1-isopropylazetidin-3-yl)oxy-2-methyl-4-pyridyl]pyrazolo[1,5-a]pyridin-2-yl]cyclopropanecarboxamide] | 0.0448 µM
23 | CO[C@H]1C[C@H](Oc2cnc(C)cc2-c2ccn3nc(NC(=O)C4CC4)cc3c2)C1 [Example 146, trans-N-[5-[5-(3-methoxycyclobutoxy)-2-methyl-4-pyridyl]pyrazolo[1,5-a]pyridin-2-yl]cyclopropanecarboxamide] | 0.0352 µM
24 | CO[C@H]1C[C@@H](Oc2cnc(C)cc2-c2ccn3nc(NC(=O)C4CC4)cc3c2)C1 [Example 147, cis-N-[5-[5-(3-methoxycyclobutoxy)-2-methyl-4-pyridyl]pyrazolo[1,5-a]pyridin-2-yl]cyclopropanecarboxamide] | 0.0124 µM
25 | Cc1cc(-c2ccn3nc(NC(=O)C4CC4)cc3c2)c(OC[C@@H](N)C(C)(C)C)cn1 [Example 149, N-[5-[5-[(2S)-2-amino-3,3-dimethyl-butoxy]-2-methyl-4-pyridyl]pyrazolo[1,5-a]pyridin-2-yl]cyclopropanecarboxamide] | 0.0122 µM
26 | Cc1cc(-c2ccn3nc(Nc4ccc(C(=O)NC5CC5)c(F)c4)cc3c2)c(OCC(C)(C)O)cn1 [Example 615, N-cyclopropyl-2-fluoro-4-[[5-[5-(2-hydroxy-2-methyl-propoxy)-2-methyl-4-pyridyl]pyrazolo[1,5-a]pyridin-2-yl]amino]benzamide] | 0.0117 µM
27 | COc1ccccc1-c1ccn2nc(NC(=O)C3CC3)cc2c1 [Example 742, N-[5-(2-methoxyphenyl)pyrazolo[1,5-a]pyridin-2-yl]cyclopropanecarboxamide] | 0.417 µM
28 | CCOc1ccccc1-c1ccn2nc(NC(=O)C3CC3)cc2c1 [Example 743, N-[5-(2-ethoxyphenyl)pyrazolo[1,5-a]pyridin-2-yl]cyclopropanecarboxamide] | 0.0217 µM
29 | COc1ccc(C)cc1-c1ccn2nc(NC(=O)C3CC3)cc2c1 [Example 744, N-[5-(2-methoxy-5-methyl-phenyl)pyrazolo[1,5-a]pyridin-2-yl]cyclopropanecarboxamide] | 0.289 µM
30 | COc1cc(C)ccc1-c1ccn2nc(NC(=O)C3CC3)cc2c1 [Example 745, N-[5-(2-methoxy-4-methyl-phenyl)pyrazolo[1,5-a]pyridin-2-yl]cyclopropanecarboxamide] | 3.52 µM
31 | COc1cccc(C)c1-c1ccn2nc(NC(=O)C3CC3)cc2c1 [Example 746, N-[5-(2-methoxy-6-methyl-phenyl)pyrazolo[1,5-a]pyridin-2-yl]cyclopropanecarboxamide] | 0.271 µM
32 | COc1c(C)cccc1-c1ccn2nc(NC(=O)C3CC3)cc2c1 [Example 747, N-[5-(2-methoxy-3-methyl-phenyl)pyrazolo[1,5-a]pyridin-2-yl]cyclopropanecarboxamide] | 0.0312 µM
